Patent EP0488965A1, “Phthalidilidene derivatives of carnitine and alkanoylcarnitines and pharmaceutical compositions containing them” (Sigma-Tau Industrie Farmaceutiche Riunite S.p.A., priority 1990, dated 1992)
pIC50: −log10 of the molar value.

Experiments:
[1] = molecular target: T1, PAF (platelet activating factor) receptors (Oryctolagus cuniculus, UniProt G1TEI7); assay: Binding to PAF receptors (3H-PAF displacement in rabbit platelets); conditions: 50% inhibiting concentration of specific receptor binding, 3H-PAF 0.5 nM, 30 minutes at 25°C
T1 construct: Blood was drawn via indracardiac puncture from male rabbits; from tissue; host or cells: Platelets from the blood of male rabbits (HY/CR strain, Charles River, Italy)
T1 sequence (G1TEI7 1-342): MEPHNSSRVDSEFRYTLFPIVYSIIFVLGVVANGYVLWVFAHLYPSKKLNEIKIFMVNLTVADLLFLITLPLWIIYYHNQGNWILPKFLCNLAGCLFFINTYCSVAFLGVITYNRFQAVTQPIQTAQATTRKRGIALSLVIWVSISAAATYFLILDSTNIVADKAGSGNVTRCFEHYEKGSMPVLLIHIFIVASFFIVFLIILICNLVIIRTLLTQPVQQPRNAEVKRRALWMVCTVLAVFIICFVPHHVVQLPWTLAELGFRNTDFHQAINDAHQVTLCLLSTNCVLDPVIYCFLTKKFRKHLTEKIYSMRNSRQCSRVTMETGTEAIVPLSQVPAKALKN
Procedure: The binding of the compounds under examination to rabbit platelet receptors was studied following the procedure disclosed by D. Nunez et al, Eur J. Pharmacol. 123, 197 (1986).
Blood was drawn via indracardiac puncture from male rabbits (HY/CR strain-Charles River, Italy) weighing 2.5-3.0 Kg.
Blood was diluted (1:9) in a ACD (0.8% citric acid, 2.2% trisodium citrate, 2.45% glucose, weight percentages) solution and centrifuged at 100 x g for 15 minutes.
The precipitate was suspended in the incubation buffer at […] platelet/ml concentration, immediately before binding.
The platelet number and possible erythrocyte contamination was controlled with a platelet counter DELCON CA480.
Platelets were incubated in polyethylene tubes with ³H-PAF (0.5 nM) for 30 minutes at 25°C. The test compounds were added to a volume of 200 µl. The final volume was equal to 500 µl. Incubation was stopped by rapid filtration under vacuum through GF/C filters (WHATMAN) washed with (3x3 ml) cold incubation buffer using a Brondel Cell Harvester filtration system. The filters were counted in 8 mL OptiFluor (Packard) using a TRI-CARB 1900 CA-Packard liquid scintillation spectrometer (about 50% counting efficiency).
The percentage of inhibition of the specific binding receptor-radioligand was calculated for each concentration (mean of incubations in triplicate).
The competition curve, the slope of the curve, and the IC₅₀ value (concentration which inhibits 50% of the specific radioligand-receptor binding) were calculated with the "All fit" program (A. De Lean et al., Am. J. Physiol. 235, E97, 1978) runned in a 55-SX IBM computer.

[2] = system: mice; assay: Observation of behaviour and death rate in mice (Irwin method); type: in vivo; conditions: for SYMPTOMS: male mice, 4 animals/dose, n.e. = no effect; for DEATH RATE: mouse, in vivo
Procedure: The observation of normal behaviour in mice was conducted following the method by S. Irwin, Psychopharmacologia 13, 222 ( 1968). This method allows alterations of some behavioural, neurophysiological and neurovegetative parameters directly detectable by the experimenter to be visualized.
The test was conducted in male mice [Crl;(CD-I)(ICR)BR, Charles River - Italy] weighing 22-25 g, following oral administration of the compounds suspended in carboxymethylcellulosa (0.5% by weight in H₂O) to groups of 4 animals/dose.
The animals were kept under continuous observation for five hours following treatment and twice a day for the subsequent five days.
Death rate was also observed during the whole test period. The initial administered dose was 1,000 mg/kg per os; lower doses were administered following death of some animals or after marked effects at the initial dose were dected.

[3] = system: PAF-induced platelet aggregation; assay: PAF-induced platelet aggregation in platelet rich plasma; type: cell-based, rabbits; conditions: Oryctolagus cuniculus, 2 min, compound 10^-5M, 2 minutes of incubation, rabbit PRP
Procedure: Blood was collected from male rabbits (HY/Charles River, Italy) by heart puncture using a plastic syringe and transferred immediately into plastic tubes containing 3.8% (by weight) solution of sodium citrate (0.1 ml/ml blood).
PRP (Platelet Rich Plasma) was obtained by plasma centrifugation at 145 x g for 5 minutes at 22°C. Platelet number was determined with a CA 580A (Delcon) "platelet counter". The platelet number was adjusted to the fixed value of […] by adding PPP (Platelet Poor Plasma). PPP was obtained by centrifuging blood at 1600 x g for 10 minutes at 22°C.
(§1) Platelet aggregation was determined photometrically (G.V.R. Born, Nature 194, 927; 1962) with an ELVI 840 aggregometer in plastic tubes under continuous stirring at 1000 rpm.
(§2) Maximal light transmission (100% ) was recorded by reading PPP, while 0% transmission was recorded by reading PRP. The PRP aggregation degree induced by the aggregation factor (PAF) was calculated as percentage of maximal light transmittance obtained with PPP using 250 µL samples of PRP.
(§3) The compounds were dissolved in bidistilled water at the concentration of 10⁻⁵ M and tested after 2 minutes of incubation.
(§4) Aggregation inhibition was calculated as percentage of the value obtained in the presence of the aggregating agent only.

[4] = system: ADP-induced platelet aggregation; assay: ADP-induced platelet aggregation in platelet rich plasma; type: cell-based, rats; conditions: 2 min, compound 10^-5M, 2 minutes of incubation, rat PRP
Procedure: as §1, §2, §3, §4
Blood was drawn from the abdominal aorta of male rats (Crl:(WI)BR, Charles River, Italy) under barbiturate anaesthesia and quickly transferred into plastic tubes containing 0.1 mL/mL blood of 3.8% (by weight) solution of sodium citrate. PRP was obtained by plasma centrifugation at 115 x g for 5 minutes at 22°C and PPP by centrifugation at 1600 x g for 10 minutes. The final PRP platelet number was adjusted to the fixed value of […] of PRP by adding PPP.
Platelet count was made with a CA580 A(Delcan) platelet counter. The same procedure outlined in the paragraph "PAF aggregation" was followed for the ADP-induced aggregation.

C[N+](C)(C)C[C@H](O)CC(=O)OC/C=C1\OC(=O)c2ccccc21 [ST 736, (Z)-(3-phtalidylidene)ethyl ester of L-carnitine bromide]
pIC50 [1]: 5.03
SYMPTOMS ([2]; 600 mg/kg per os): n.e.
SYMPTOMS ([2]; 1000 mg/kg per os): convulsion, salivation
DEATH RATE ([2]; 600 mg/kg): 0/4
DEATH RATE ([2]; 1000 mg/kg): 3/4

CC(=O)O[C@H](CC(=O)OC/C=C1\OC(=O)c2ccccc21)C[N+](C)(C)C [ST 739]
pIC50 [1]: 5.28
SYMPTOMS ([2]; 600 mg/kg per os): n.e.
SYMPTOMS ([2]; 1000 mg/kg per os): jerks
DEATH RATE ([2]; 600 mg/kg): 0/4
DEATH RATE ([2]; 1000 mg/kg): 2/4

CCC(=O)O[C@H](CC(=O)OC/C=C1\OC(=O)c2ccccc21)C[N+](C)(C)C [ST 768]
pIC50 [1]: 5.17
SYMPTOMS ([2]; 600 mg/kg per os): n.e.
SYMPTOMS ([2]; 1000 mg/kg per os): convulsion, salivation diarrhea, lacrimation
DEATH RATE ([2]; 600 mg/kg): 0/4
DEATH RATE ([2]; 1000 mg/kg): 1/4

CC(C)C(=O)O[C@H](CC(=O)OC/C=C1\OC(=O)c2ccccc21)C[N+](C)(C)C [ST 775]
pIC50 [1]: 5.70
SYMPTOMS ([2]; 1000 mg/kg per os): n.e.
DEATH RATE ([2]; 1000 mg/kg): 0/4

CC(C)CC(=O)O[C@H](CC(=O)OC/C=C1\OC(=O)c2ccccc21)C[N+](C)(C)C [ST 776]
pIC50 [1]: 5.44
SYMPTOMS ([2]; 600 mg/kg per os): n.e.
SYMPTOMS ([2]; 1000 mg/kg per os): convulsion, salivation
DEATH RATE ([2]; 600 mg/kg): 0/4
DEATH RATE ([2]; 1000 mg/kg): 2/4
inhibition at 10 µM [3]: 100%
inhibition at 10 µM [4]: 5%

C[N+](C)(C)C[C@H](O)CC(=O)OC/C=C1\OC(=O)c2cc(Cl)ccc21 [ST 801]
pIC50 [1]: 7.70
SYMPTOMS ([2]; 1000 mg/kg per os): salivation
DEATH RATE ([2]; 1000 mg/kg): 0/4
inhibition at 10 µM [3]: 97%
inhibition at 10 µM [4]: 7%

CC(C)CC(=O)O[C@H](CC(=O)OC/C=C1\OC(=O)c2cc(Cl)ccc21)C[N+](C)(C)C [ST 803]
pIC50 [1]: 8.18
SYMPTOMS ([2]; 1000 mg/kg per os): diarrhea
DEATH RATE ([2]; 1000 mg/kg): 0/4
inhibition at 10 µM [3]: 72%
inhibition at 10 µM [4]: 8%

CC(=O)O[C@H](CC(=O)OC/C=C1\OC(=O)c2cc(Cl)ccc21)C[N+](C)(C)C [ST 804]
pIC50 [1]: 7.72
SYMPTOMS ([2]; 600 mg/kg per os): salivation
SYMPTOMS ([2]; 1000 mg/kg per os): salivation
DEATH RATE ([2]; 600 mg/kg): 0/4
DEATH RATE ([2]; 1000 mg/kg): 1/4
inhibition at 10 µM [3]: 96%
inhibition at 10 µM [4]: 13%

CCC(=O)O[C@H](CC(=O)OC/C=C1\OC(=O)c2cc(Cl)ccc21)C[N+](C)(C)C [ST 805]
pIC50 [1]: 7.66
SYMPTOMS ([2]; 600 mg/kg per os): salivation
SYMPTOMS ([2]; 1000 mg/kg per os): salivation
DEATH RATE ([2]; 600 mg/kg): 0/4
DEATH RATE ([2]; 1000 mg/kg): 1/4
inhibition at 10 µM [3]: 40%
inhibition at 10 µM [4]: 10%

CC(C)C(=O)O[C@H](CC(=O)OC/C=C1\OC(=O)c2cc(Cl)ccc21)C[N+](C)(C)C [ST 806]
pIC50 [1]: 7.74
SYMPTOMS ([2]; 600 mg/kg per os): salivation
SYMPTOMS ([2]; 1000 mg/kg per os): salivation
DEATH RATE ([2]; 600 mg/kg): 0/4
DEATH RATE ([2]; 1000 mg/kg): 1/4
inhibition at 10 µM [3]: 95%
inhibition at 10 µM [4]: 18%
